From US20240158348A1, “HERBICIDAL CYCLIC AMIDES N-SUBSTITUTED WITH A HALOALKYLSULFONYLANILIDE GROUP” (FMC Corporation, priority 2021, published 2024)

Tests used:
Type in all cases: in vivo
[1] = system: foxtail, giant (giant foxtail, Setaria faberi); assay: Test C preemergence, giant foxtail; details: 0 is no effect, 100 is complete control
How it was run: (§1)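 Steps: sow in loam soil blended with sand; treat soil preemergence by directed spray, or treat young plants (2–10 cm, one to two leaves) postemergence; hold in greenhouse 10 or 12 days; rate injury visually relative to untreated controls on a 0–100 scale.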

[2] = system: blackgrass (Alopecurus myosuroides); assay: Test C preemergence, blackgrass; details: 0 is no effect, 100 is complete control
How it was run: as §1

[3] = system: pigweed, palmer (palmer amaranth, Amaranthus palmeri); assay: Test C preemergence, palmer amaranth; details: 0 is no effect, 100 is complete control
How it was run: as §1

[4] = system: oat, wild (wild oat, Avena fatua); assay: Test C preemergence, wild oat; details: 0 is no effect, 100 is complete control
How it was run: as §1

soybean (Glycine max) = assay: Test C postemergence, soybean; details: visual injury, 0 to 100 scale (0 no effect, 100 complete control)
[5] = system: wheat (Triticum aestivum); assay: Test C postemergence, wheat; details: visual injury, 0 to 100 scale (0 no effect, 100 complete control)
How it was run: as §1

[6] = system: ducksalad (Heteranthera limosa); assay: Test D flooded paddy test, ducksalad; set-up: key: 0 = no effect, 100 = complete control; details: 250 g ai/ha, Flood; applied to paddy water at 2-leaf stage; visual rating after 13 days; scale 0 (no effect) to 100 (complete control)
How it was run: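 Pots holding 2-leaf-stage plants were flooded 3 cm deep and dosed via the water, which stayed at that level. After 13 greenhouse days, injury was scored visually against untreated controls, 0 (none) to 100 (complete control); a dash marks no test result.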

[7] = system: ragweed (common ragweed, Ambrosia artemisiifolia); assay: Test C preemergence, ragweed; details: 0 is no effect, 100 is complete control
How it was run: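 Plants grown in a sand and loam soil blend received the formulated test chemicals either as a preemergence soil-directed spray or postemergence at 2 to 10 cm height. After 10 or 12 greenhouse days, injury was assessed visually, with 100 meaning complete control.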

[8] = system: oat, wild (wild oat, Avena fatua); assay: Test C postemergence, wild oat; details: for Oat, Wild plant response rating: visual injury, 0 to 100 scale (0 no effect, 100 complete control); for Plant response rating (0 to 100 scale), Oat, Wild: 0 is no effect, 100 is complete control

| SMILES | Plant response rating (0 to 100 scale), Foxtail, Giant ([1]; 31 g ai/ha Preemergence) | Plant response rating (0 to 100 scale), Foxtail, Giant ([1]; 125 g ai/ha Preemergence) | Plant response rating (0 to 100 scale), Blackgrass ([2]; 31 g ai/ha Preemergence) | Plant response rating (0 to 100 scale), Blackgrass ([2]; 125 g ai/ha Preemergence) | Plant response rating (0 to 100 scale), Pigweed, Palmer ([3]; 31 g ai/ha Preemergence) | Plant response rating (0 to 100 scale), Pigweed, Palmer ([3]; 125 g ai/ha Preemergence) | Plant response rating (0 to 100 scale), Oat, Wild ([4]; 31 g ai/ha Preemergence) | Plant response rating (0 to 100 scale), Oat, Wild ([4]; 125 g ai/ha Preemergence) | Soybean plant response rating (soybean (Glycine max); 31 g ai/ha Postemergence) | Soybean plant response rating (soybean (Glycine max); 125 g ai/ha Postemergence) | Wheat plant response rating ([5]; 31 g ai/ha Postemergence) | Wheat plant response rating ([5]; 125 g ai/ha Postemergence) | Plant response rating, Ducksalad [6] | Plant response rating (0 to 100 scale), Ragweed ([7]; 31 g ai/ha Preemergence) | Plant response rating (0 to 100 scale), Ragweed ([7]; 125 g ai/ha Preemergence) | Oat, Wild plant response rating ([8]; 31 g ai/ha Postemergence) | Plant response rating (0 to 100 scale), Oat, Wild ([8]; 125 g ai/ha Postemergence) | Oat, Wild plant response rating ([8]; 125 g ai/ha Postemergence) |
| --- | --- | --- | --- | --- | --- | --- | --- | --- | --- | --- | --- | --- | --- | --- | --- | --- | --- | --- |
| CC(=O)N(c1cc(N2CCC(OC3CC3)C2=O)c(C)cc1Cl)S(=O)(=O)C(F)(F)F (stereo not shown) [Compound 38] | 80 | 100 | 80 | 90 | 90 | 100 | 30 | 100 | 70 | 80 | 60 | 60 | 65 | 70 | 90 | 50 | 60 |  |
| COC(=O)N(c1cc(N2CCC(OC3CC3)C2=O)c(C)cc1Cl)S(=O)(=O)C(F)(F)F (stereo not shown) [Compound 40] | 100 | 100 | 50 | 90 | 80 | 100 | 10 | 90 | 70 | 80 | 60 | 70 | 70 | 70 | 90 | 50 | 80 |  |
| Cc1cc(C)c(N2CCC(OCC3CC3(F)F)C2=O)cc1NS(=O)(=O)C(F)(F)F (stereo not shown) [Compound 41] | 100 | 100 | 80 | 100 | 100 | 100 | 60 | 100 | 90 | 90 | 60 | 60 | 60 | 70 | 90 | 30 |  | 30 |
| Cc1cc(C)c(N2CCC(OCC3CCCO3)C2=O)cc1NS(=O)(=O)C(F)(F)F (stereo not shown) [Compound 42] | 20 | 100 | 20 | 70 | 80 | 100 | 0 | 30 | 70 | 80 | 0 | 80 | 95 | 10 | 60 | 0 |  | 40 |
| Cc1cc(C)c(N2CCC(OCC3CCC3)C2=O)cc1NS(=O)(=O)C(F)(F)F (stereo not shown) [Compound 43] | 30 | 100 | 40 | 50 | 70 | 100 | 0 | 50 | 80 | 90 | 30 | 70 | 95 | 10 | 60 | 10 |  | 20 |
